Measured values as given in PubChem BioAssay AID179 (DTP/NCI, 2004).
The source made the active and inactive calls.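 Rule for the calls: active = compounds giving half or more protection of infected cells from virus-caused growth loss, again on retest; inactive = the rest.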 Where a SMILES comes first, the peptide text is derived from it.

System: CEM cells HIV-1 protection, formazan growth assay
Assay: NCI AIDS Antiviral Assay
Details: for IC50: measured here: growth of uninfected CEM cells
Summary of the method: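 CEM (human) cells, HIV-1 infected vs uninfected, 5-point dosing, formazan growth read-out. Retest threshold 50% protection.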

Row | SMILES | outcome | EC50 [µM] | IC50 [µM]
1 | COc1ccc2cc1Oc1ccc(cc1)CC1c3c(cc4c(c3Oc3cc5c(cc3OC)CCN(C)C5C2)OCO4)CCN1C (configuration not stated) | inactive |  | 
2 | COc1c2c(c(Cl)c3ccc(=O)oc13)CCO2 |  | > 70.8 | > 70.8
3 | CNc1ncc2nc(C(=O)O)c(=O)n(C)c2n1 |  | > 200 | > 200
4 | COc1cc(/C=C(\C#N)C(=O)c2ccccc2)ccc1O |  | > 646 | 490
5 | CC(=O)NNc1nc(C)c(C(=O)/C=C/c2ccccc2Cl)s1 |  | > 77.6 | 58.9
6 | O=C(/C(=C/c1ccc(Cl)cc1)c1ccccc1)c1ccccc1 |  | > 8.51 | > 8.51
7 | O=c1cc2ccc(Cl)cc2n[nH]1 |  | > 85.1 | > 85.1
8 | CC1=NNC(=O)C1C(C/C(=N/O)c1c[nH]c2ccccc12)C(=O)O (configuration not stated) |  | > 100 | > 100
9 | [N-]=[N+]=NC1CC(n2cc(C(OCC(F)(F)F)OCC(F)(F)F)c(=O)[nH]c2=O)OC1CO (configuration not stated) |  | 25.1 | 107
10 | Cc1cc2c(c(N)c1C)C(=O)c1ccccc1C2=O | inactive |  | 
11 | CC(C)(CN1CCCCC1)C(=O)CC(SCCS(=O)(=O)O)c1ccccc1 (configuration not stated) |  | > 200 | 3.31
12 | COc1cc(NCCN(CC(C)C)C(C)C(C)C)c2ncccc2c1 (configuration not stated) |  | > 200 | 37.2
13 | N#Cc1nc(-c2cccs2)oc1N |  | > 200 | > 200
14 | CN1C(=O)c2ccccc2OC12C=Cc1ccc(O)cc1O2 (configuration not stated) |  | > 132 | 45.7
15 | O=C(O)CCC1CCc2cccc3oc(C(=O)O)c1c23 (configuration not stated) | inactive |  | 
16 | COc1ccc(N2CCN(c3ccc4c(c3)NCC(=O)N4)CC2)cc1 |  | > 200 | 45.7
17 | COc1cccc(NC(=O)CC(=O)n2nc(C)c(N=Nc3ccccc3F)c2C)c1 | inactive |  | 
18 | C(=C\CSc1ccccc1)/CSc1ccccc1 |  | > 13.8 | > 13.8
19 | Cc1ccccc1C1(Br)C(=O)c2ccccc2C1=O |  | > 200 | 33.9
20 | Cn1c(-c2csc(-c3ccc(Cl)cc3)n2)n[nH]c1=S |  | > 200 | > 200
21 | [N-]=[N+]=CC(=O)OCCCCl |  | > 200 | > 200
22 | BrC(Br)([P+](c1ccccc1)(c1ccccc1)c1ccccc1)[P+](c1ccccc1)(c1ccccc1)c1ccccc1 | inactive |  | 

Row | SMILES | outcome | EC50 [µM] | IC50 [µM]
23 | COc1cc2c(cc1OC)C(=O)/C(=C/c1ccc(N(C)C)cc1)CC2 |  | > 155 | 110
24 | CC(=O)Nc1cccc2cc(S(=O)(=O)O)ccc12 |  | > 200 | > 200
25 | O=C1CS(=O)(=O)C(c2ccccc2Cl)N1N1C(=O)CS(=O)(=O)C1c1ccccc1Cl (configuration not stated) |  | > 200 | 46.8
26 | O=C(CC1(O)C(=O)Nc2c(Cl)ccc(Cl)c21)c1ccc2ccccc2c1 (configuration not stated) |  | > 245 | 14.5
27 | CC(C)N1C(=O)C(C#N)=C(c2ccccc2)SC1c1ccccc1 (configuration not stated) |  | > 30.2 | > 30.2
28 | COc1ccc(S(=O)(=O)N/N=C(\C)CN2C(=O)c3ccccc3C2=O)cc1 |  | > 129 | > 129
29 | CN(C)c1ncnc2c1ncn2C1OC(CO)CC1F (configuration not stated) |  | 141 | 178
30 | O=[N+]([O-])c1ccc2c(c1)C1=C(CO2)Cc2ccccc2O1 | inactive |  | 
31 | CCOP(=O)(OCC)/C(C#N)=C/c1ccccc1O |  | > 891 | > 891
32 | COc1cc(C(c2cc(OC)c(OC)c(OC)c2)N2C(=O)CCC2C(=O)O)cc(OC)c1OC (configuration not stated) |  | > 200 | > 200
33 | O=C1NC2C(=CC(O)C(O)C2O)c2cc3c(cc21)OCO3 (configuration not stated) |  | > 8.51 | 0.174
34 | CCC[CH2][Sn]1([CH2]CCC)[O]CC(CN2CCOCC2)[O]1 (configuration not stated) |  | > 4.57 | 0.295
35 | CCCCCn1cnc2c1S(=O)(=O)N(C)C(NC(=O)c1ccccc1)=N2 |  | > 200 | > 200
36 | CC(C)CCCC(C)[C@H]1CC[C@H]2[C@@H]3CC[C@H]4C[C@@H](CCC=C(c5cc(Cl)c(OCc6ccc(B(O)O)cc6)c(C(=O)O)c5)c5cc(Cl)c(OCc6ccc(B(O)O)cc6)c(C(=O)O)c5)CC[C@]4(C)[C@H]3CC[C@]12C (some centres not stated) |  | 5.89 | 93.3
37 | Cc1cc(Cl)cc2c1NC(=O)C2(O)C(C)C(=O)c1ccc(Cl)cc1 (configuration not stated) |  | > 186 | 123
38 | CC(C)(C)C1COP(=O)(C(C)(C)C)OC1 (configuration not stated) |  | > 537 | 468
39 | O=C(O)c1ccc(CSc2ccccc2)c([N+](=O)[O-])c1 |  | > 631 | 245
40 | CSc1ccc(NC(=S)NN(C)C)cc1 |  | > 200 | 93.3
41 | COC(=O)c1c(C(=O)OC)c2ccccn2c1-c1cc(C)cc2c1C(=O)C=CC2=O |  | > 200 | 0.468
42 | O=C(N=Nc1c(O)[nH]c2ccccc12)c1ccccc1O |  | > 25.1 | 15.5
43 | NC(CO)C(=O)NC(CO)C(=O)NC(Cc1ccc(O)cc1)C(=O)NC(CO)C(=O)NC(CO)C(=O)O (configuration not stated) (H-SSYSS-OH; configuration not given here) |  | > 93.3 | > 93.3
44 | CC(C)C1OC(=O)/C=C/C=C/C=C/C=C/C=C/CC(O)CC(O)CC(O)CC(O)CC(O)CC(O)CC(O)CC(O)/C=C/C1C (configuration not stated) |  | > 200 | > 200

Row | SMILES | outcome | EC50 [µM] | IC50 [µM]
45 | N=C(N)n1ncc(Cl)c(Cl)c1=O |  | > 91.2 | 0.407
46 | Cc1cccc(C)c1N1C(=O)C(=O)C(c2nc3ccccc3s2)/C(=N/NC(=O)c2ccccc2O)C1=O (configuration not stated) |  | > 251 | 6.61
47 | C#C[C@]1(O)CC[C@H]2[C@@H]3C[C@@H](O)[C@]45CC4CC[C@]5(C)[C@H]3CC[C@@]21C (some centres not stated) |  | > 200 | 72.4
48 | O=C1CSC(c2cccc(Cl)c2)N1N1C(=O)CSC1c1cccc(Cl)c1 (configuration not stated) |  | > 200 | 66.1
49 | Cc1ccc(OCC2OC(n3cnc4c(Cl)nc(N)nc43)CC2Oc2ccc(C)cc2)cc1 (configuration not stated) |  | > 200 | 66.1
50 | O=C(NCCCl)SCCO |  | > 1350 | > 1350
51 | CC1=C/C(=C(\c2cc(C)c(O)c(Br)c2)c2ccccc2S(=O)(=O)O)C=C(Br)C1=O | inactive |  | 
52 | COC1/C=C/OC2(C)Oc3c(C)c(O)c4c(O)c(c(/C=N/N5C(C)CN(Cc6ccc(C(C)(C)C)cc6)CC5C)c(O)c4c3C2=O)NC(=O)/C(C)=C\C=C\C(C)C(O)C(C)C(O)C(C)C(OC(C)=O)C1C (configuration not stated) |  | > 200 | 12.3
53 | COc1ccc(CCn2c(=O)c3ccccc3n(C)c2=O)cc1 |  | > 83.2 | 32.4
54 | COc1cc(/C=C2/SC(c3ccccc3)N(c3cc(Cl)ccc3Cl)C2=O)cc(OC)c1OC (configuration not stated) |  | > 200 | 70.8
55 | CC1(C)CCCCCCCCCC2CC2CCC(C)(C)C1=O (configuration not stated) |  | > 200 | > 100
56 | CCc1ccccc1NC(=O)CCc1nc(=S)[nH][nH]1 |  | > 912 | > 912
57 | Cc1ccc(/C=C(\C#N)c2ccccc2)cc1 |  | > 229 | > 229
58 | O=c1c(O)c(-c2ccccc2)n(O)c2ccc(Cl)cc12 |  | > 18.2 | > 18.2
59 | O=C(O)c1cccc(SS(=O)(=O)c2cccc(C(=O)O)c2)c1 |  | 27.5 | 162
60 | COc1cc(C2SC(N)=Nc3c2c(C)nn3C(=O)c2ccccc2O)cc(OC)c1OC (configuration not stated) |  | > 20 | 0.457
61 | CCOP(=O)(CC(=O)c1cc2ccccc2[nH]1)OCC |  | > 851 | 437
62 | C/C(=N\NC(=O)N/N=C(\C)c1ccccn1)c1ccccn1 |  | > 2 | 0.0339
63 | Cc1cccc(C)c1NC(=S)N/C=C(\C#N)C(N)=O |  | > 200 | > 200
64 | O=C1CCC(C(=O)O)C2=C1CCCC2 (configuration not stated) | inactive |  | 
65 | COC(=O)N/N=C(\c1ccccc1)c1ccc(OC)cc1 |  | > 200 | 112
66 | Nc1ccc(/C=C/c2ccc(N=Nc3ccc(/C=C/c4ccc(N)cc4S(=O)(=O)O)c(S(=O)(=O)O)c3)cc2S(=O)(=O)O)c(S(=O)(=O)O)c1 |  | 9.33 | 166

Row | SMILES | outcome | EC50 [µM] | IC50 [µM]
67 | COc1ccccc1Cn1[nH]c(=O)c2cc([N+](=O)[O-])ccc21 |  | > 200 | 63.1
68 | O=C(O)/C=C/c1c2ccc(=O)cc-2oc2cc(O)ccc12 |  | > 200 | 28.8
69 | COC1C2c3ccccc3C(C#N)(Cc3ccc4c(c32)OCO4)N1C(=O)c1ccccc1 (configuration not stated) | inactive |  | 
70 | CC1(C)CC(N2CCN(C3CC(C)(C)NC(C)(C)C3)CC2)CC(C)(C)N1 |  | > 339 | > 339
71 | CCNC(=S)Nc1c(C#N)c2n(c1C(=O)OCC)CCCCC2 |  | > 200 | > 200
72 | C1CN(/N=N/N2CCOCC2)CCO1 |  | > 200 | > 200
73 | O=C(CCCn1ccnc1[N+](=O)[O-])NCCn1cncc1[N+](=O)[O-] |  | > 200 | > 200
74 | CCOC(=O)C1([N+](=O)[O-])[C@@H]2CCCC[C@@H]21 (some centres not stated) |  | > 316 | > 316
75 | CN(CCc1ccccn1)C(=S)N/N=C/c1ccccn1 |  | > 0.2 | 0.0251
76 | Cc1cc(C)c2c(c1)N[S@@](=O)S2 |  | > 13.5 | > 13.5
77 | O=P(O)(CN(C1CCCCC1)C1CCCCC1)CN(C1CCCCC1)C1CCCCC1 |  | 178 | > 200
78 | COc1cc(C2c3cc(O)c(OC)cc3C[C@@H]3C(=O)OCC23)ccc1O (some centres not stated) |  | > 263 | > 263
79 | N#CC(c1ccccc1)(c1ccccc1)[C@@H](c1ccccc1)[C@H](Cc1ccccc1)NS(=O)(=O)c1ccccc1 |  | > 200 | > 200
80 | CC1(c2ccc(F)cc2)C2C(=O)NC(=O)C1C(=O)NC2=O (configuration not stated) |  | > 871 | 575
81 | Cc1cc(-c2ccc[nH]2)on1 |  | > 200 | > 200
82 | CC(=O)Oc1cc(Cl)c(C)c2c1[C@H]1CC[C@]3(C)[C@@H](OC(C)=O)CC[C@H]3[C@@H]1CC2 |  | > 126 | > 126
83 | CCOP(=S)(NN=C1CCCCC1)OCC |  | > 200 | 112
84 | COC1CC(O[C@H]2CC[C@@]3(C)[C@H](CC[C@@H]4[C@@H]3CC[C@]3(C)[C@@H](C5=CC(=O)OC5)[C@@H](OC(C)=O)C[C@]43O)C2)OC(C)C1O (some centres not stated) |  | > 0.2 | 0.0102
85 | COc1cc(/C=N/Nc2nnc3c4ccccc4c4ncccc4c3n2)cc(OC)c1OC |  | > 100 | 57.5
86 | CCOP(=O)(OCC)C(Nc1ccc(Br)cc1)c1cccc([N+](=O)[O-])c1 (configuration not stated) | inactive |  | 
